# What was measured:
# [1] = tested on: PC-3; assay: cells; assay type: cell-based; conditions: Homo sapiens, NCI-60, 48 h
# [2] = tested on: HT29; assay: cells; assay type: cell-based; conditions: Homo sapiens, HT-29, NCI-60, 48 h
# [3] = tested on: HS 578T; assay: cells; conditions: Homo sapiens, 48 h
# [4] = tested on: Hennes 20 cells; assay: Cell growth recovery assay; assay type: cell-based, Chinese hamster; conditions: PAV-617 0.3 µM 24 h, PAV-951 0.4 µM 6 h, followed to day 14
# Procedure: To confirm that the inhibition observed in low-density Hennes 20 cells resulted from temporary arrest of proliferation and not cell death, compound was removed after a period of treatment and cell growth was measured over the subsequent two weeks for recovery potential. Once compound was removed, following a period of recovery, cell proliferation was restored over time for both chemotypes (see figure 1f,g). By day 11, cell density in compound-treated cells had caught up to that in the DMSO-treated cells (see figure 1f,g).
# A 96-well plate was seeded with either Hennes 20 or LNCaP C-33 cells at 500 cells per well in 90 µl of minimum essential media and incubated at 37°C for 24 h. 0.5% DMSO was diluted in media and added to six control wells for each plate. PAV-617 was diluted in media and added to three wells at a concentration of 0.3 µM. PAV-951 was diluted in media and added to concentration of 0.4 µM. After 24 h of PAV-617 treatment or 6 h of PAV-951 treatment, the medium containing compound was removed and replaced with fresh media. After 72 h (day 5), plates were assayed with AlamarBlue and fluorescence was read at 530/590. The medium containing AlamarBlue was removed and replaced with fresh media. After another 72 h (day 8) plates were assayed with AlamarBlue and fluorescence again, then medium containing AlamarBlue was removed and replaced with fresh media. […]
# [5] = tested on: SJSA1-OSA; assay: Eurofins OncoPanel (CellTiter-Glo); assay type: cell-based; conditions: Homo sapiens, 72 h, 3 days
# [6] = tested on: HOP-92; assay: cells; conditions: Homo sapiens, HOP-92, 48 h
# [7] = tested on: SK-MEL-5; assay: cells; conditions: Homo sapiens, SK-MEL-5, 48 h
# [8] = tested on: HT-29; assay: In-house cancer cell viability screen (AlamarBlue); assay type: cell-based; conditions: Homo sapiens, 72 h
# [9] = tested on: MDA-MB-468; assay: cells; conditions: Homo sapiens, MDA-MB-468, 48 h
# [10] = tested on: HT-29 colorectal cancer xenograft; assay: HT-29 xenograft study; assay type: in vivo, mouse; conditions: 17 days, PAV-951 3 mg kg^−1 IV, Irinotecan 60 mg kg^−1 IP
# Procedure: In the second animal efficacy study, human HT-29 colorectal adenocarcinoma cells were grafted subcutaneously onto mice. After tumour establishment, the animals received treatment with vehicle, 3 mg kg^−1 PAV-951 or 60 mg kg^−1 of a positive control drug Irinotecan. […]. Survival was not assessed as part of the study.
# HT-29 cells growing in HBSS medium were suspended in Matrigel. 0.1 ml of the cell suspension containing 5 × 10^6 cells were injected subcutaneously into the left flank region of male, 6–8 week old SCID mice. After tumour establishment, animals were divided randomly into groups of six and treated daily by IV with vehicle daily for 17 days, 3 mg kg^−1 PAV-951 three times per week for 17 days, or treated by IP with 60 mg kg^−1 Irinotecan every 4 days for 14 days. Tumour volume was calculated using the formula: (L × W2)/2 where L is the largest diameter and W is the smallest diameter of the tumour. Statistical analysis was performed using GraphPad Prism (Ver. 5.03). Statistical analysis of tumour growth inhibition between the Control and Treated groups was performed by using ne-way ANOVA followed by Dunnett’s test.
# [11] = tested on: COLO 205; assay: cells; assay type: cell-based; conditions: Homo sapiens, NCI-60, 48 h
# [12] = tested on: LNCaP C-33; assay: In-house cancer cell viability screen (AlamarBlue); assay type: cell-based; conditions: Homo sapiens, LnCAP-C33, 72 h
# [13] = tested on: HCT-15; assay: cells; conditions: Homo sapiens, HCT-15, 48 h
# [14] = tested on: SW-620; assay: cells; assay type: cell-based; conditions: Homo sapiens, NCI-60, 48 h
# [15] = tested on: SF-539; assay: cells; conditions: Homo sapiens, SF-539, 48 h
# [16] = tested on: A498; assay: cells; conditions: Homo sapiens, A498, 48 h
# [17] = tested on: NCI-H226; assay: cells; conditions: Homo sapiens, NCI-H226, 48 h
# [18] = tested on: HCC-2998; assay: cells; conditions: Homo sapiens, HCC 2998, 48 h
# [19] = tested on: SK-OV-3; assay: cells; conditions: Homo sapiens, SK-OV-3, 48 h
# [20] = tested on: UACC-62; assay: cells; conditions: Homo sapiens, UACC-62, 48 h
# [21] = tested on: UACC-257; assay: cells; conditions: Homo sapiens, UACC-257, 48 h
# [22] = tested on: BT-549; assay: cells; conditions: Homo sapiens, BT-549, 48 h
# [23] = tested on: RPMI-8226; assay: cells; assay type: cell-based; conditions: Homo sapiens, NCI-60, 48 h
# [24] = tested on: OVCAR-5; assay: cells; conditions: Homo sapiens, OVCAR-5, 48 h
# [25] = tested on: TK-10; assay: cells; conditions: Homo sapiens, TK-10, 48 h
# [26] = tested on: OVCAR-3; assay: cells; conditions: Homo sapiens, OVCAR-3, 48 h
compound,measurement,setting,value
CC(C)CCNc1ncnc2cc(N3CCN(c4ccc5c(NCCC(C)C)ncnc5c4)CC3)ccc12 [PAV-951],GI50,[1],0.399 µM
same,GI50,[2],0.345 µM
same,GI50,[3],0.352 µM
same,CC50,[3]; read-out: LC50,> 100 µM
same,recovery of cell growth after removal of compound,[4],recovered over time
same,IC50,[5],0.724 µM
same,GI50,[6],1.23 µM
same,CC50,[6]; read-out: LC50,6.22 µM
same,GI50,[7],1.87 µM
same,CC50,[7]; read-out: LC50,9.12 µM
same,IC50,[8],0.101 µM
same,GI50,[9],1.47 µM
same,CC50,[9]; read-out: LC50,5.61 µM
same,tumour growth inhibition (TGI),[10],52%
same,GI50,[11],0.61 µM
same,IC50,[12],0.542 µM
same,GI50,[13],0.173 µM
same,CC50,[13]; read-out: LC50,0.815 µM
same,GI50,[14],0.194 µM
same,GI50,[15],0.683 µM
same,CC50,[15]; read-out: LC50,4.53 µM
same,GI50,[16],1.86 µM
same,CC50,[16]; read-out: LC50,5.92 µM
same,GI50,[17],1.76 µM
same,CC50,[17]; read-out: LC50,6.81 µM
same,GI50,[18],0.967 µM
same,CC50,[18]; read-out: LC50,5.13 µM
same,GI50,[19],1.55 µM
same,CC50,[19]; read-out: LC50,6.34 µM
same,GI50,[20],1.38 µM
same,CC50,[20]; read-out: LC50,5.61 µM
same,GI50,[21],1.71 µM
same,CC50,[21]; read-out: LC50,5.98 µM
same,GI50,[22],1.59 µM
same,CC50,[22]; read-out: LC50,6.04 µM
same,GI50,[23],0.213 µM
same,GI50,[24],1.08 µM
same,CC50,[24]; read-out: LC50,4.83 µM
same,GI50,[25],2.16 µM
same,CC50,[25]; read-out: LC50,6.14 µM
same,GI50,[26],1.05 µM
same,CC50,[26]; read-out: LC50,4.79 µM
